# From patent publication US9469650B2, “Melampomagnolide B derivatives” (BOARD OF TRUSTEES OF THE UNIVERSITY OF ARKANSAS, priority 2013, dated 2016)
# Key:
# [1] = test system: CAKI-1; assay: panel of 60 human tumor cell lines, growth inhibition (Renal Cancer); conditions: CAKI-1
# [2] = test system: HT29; assay: panel of 60 human tumor cell lines, growth inhibition (Colon Cancer); conditions: HT29
# [3] = test system: OVCAR-5; assay: panel of 60 human tumor cell lines, growth inhibition (Ovarian Cancer); conditions: OVCAR-5
# [4] = test system: SK-OV-3; assay: as above; conditions: SK-OV-3
# [5] = test system: MCF7; assay: panel of 60 human tumor cell lines, growth inhibition (Breast Cancer); conditions: MCF7
# [6] = test system: OVCAR-8; assay: panel of 60 human tumor cell lines, growth inhibition (Ovarian Cancer); conditions: OVCAR-8
# [7] = test system: NCI-H23; assay: panel of 60 human tumor cell lines, growth inhibition (Non-Small Cell Lung Cancer); conditions: NCI-H23
# [8] = test system: SF-268; assay: panel of 60 human tumor cell lines, growth inhibition (CNS Cancer); conditions: SF-268
# [9] = test system: NCI-H522; assay: panel of 60 human tumor cell lines, growth inhibition (Non-Small Cell Lung Cancer); conditions: NCI-H522
smiles,measurement,setting,value
C=C1C(=O)O[C@H]2[C@H]1CC/C(COC(=O)CCC(=O)N1CCC(C)CC1)=C\CC[C@@]1(C)O[C@@H]21 [JVM 2-70],Percent Growth,[1]; Log10 Concentration −4.0,−93%
same,Percent Growth,[1]; Log10 Concentration −5.0,4%
same,Percent Growth,[1]; Log10 Concentration −6.0,88%
same,Percent Growth,[1]; Log10 Concentration −7.0,95%
same,Percent Growth,[1]; Log10 Concentration −8.0,90%
same,GI50,[1]; NCI five dose,2.83 µM
same,TGI,[1]; NCI five dose,1.11E−5
same,Percent Growth,[2]; Log10 Concentration −4.0,−87%
same,Percent Growth,[2]; Log10 Concentration −5.0,19%
same,Percent Growth,[2]; Log10 Concentration −6.0,103%
same,Percent Growth,[2]; Log10 Concentration −7.0,106%
same,Percent Growth,[2]; Log10 Concentration −8.0,99%
same,GI50,[2]; NCI five dose,4.28 µM
same,TGI,[2]; NCI five dose,1.51E−5
same,Percent Growth,[3]; Log10 Concentration −4.0,−89%
same,Percent Growth,[3]; Log10 Concentration −5.0,41%
same,Percent Growth,[3]; Log10 Concentration −6.0,87%
same,Percent Growth,[3]; Log10 Concentration −7.0,87%
same,Percent Growth,[3]; Log10 Concentration −8.0,86%
same,GI50,[3]; NCI five dose,6.36 µM
same,TGI,[3]; NCI five dose,2.06E−5
same,Percent Growth,[4]; Log10 Concentration −4.0,−10%
same,Percent Growth,[4]; Log10 Concentration −5.0,95%
same,Percent Growth,[4]; Log10 Concentration −6.0,99%
same,Percent Growth,[4]; Log10 Concentration −7.0,101%
same,Percent Growth,[4]; Log10 Concentration −8.0,92%
same,GI50,[4]; NCI five dose,26.8 µM
same,TGI,[4]; NCI five dose,8.06E−5
same,Percent Growth,[5]; Log10 Concentration −4.0,−63%
same,Percent Growth,[5]; Log10 Concentration −5.0,4%
same,Percent Growth,[5]; Log10 Concentration −6.0,74%
same,Percent Growth,[5]; Log10 Concentration −7.0,88%
same,Percent Growth,[5]; Log10 Concentration −8.0,83%
same,GI50,[5]; NCI five dose,2.22 µM
same,TGI,[5]; NCI five dose,1.16E−5
same,Percent Growth,[6]; Log10 Concentration −4.0,−88%
same,Percent Growth,[6]; Log10 Concentration −5.0,15%
same,Percent Growth,[6]; Log10 Concentration −6.0,89%
same,Percent Growth,[6]; Log10 Concentration −7.0,95%
same,Percent Growth,[6]; Log10 Concentration −8.0,94%
same,GI50,[6]; NCI five dose,3.37 µM
same,TGI,[6]; NCI five dose,1.39E−5
same,Percent Growth,[7]; Log10 Concentration −4.0,−70%
same,Percent Growth,[7]; Log10 Concentration −5.0,33%
same,Percent Growth,[7]; Log10 Concentration −6.0,94%
same,Percent Growth,[7]; Log10 Concentration −7.0,101%
same,Percent Growth,[7]; Log10 Concentration −8.0,95%
same,GI50,[7]; NCI five dose,5.24 µM
same,TGI,[7]; NCI five dose,2.09E−5
same,Percent Growth,[8]; Log10 Concentration −4.0,−72%
same,Percent Growth,[8]; Log10 Concentration −5.0,67%
same,Percent Growth,[8]; Log10 Concentration −6.0,93%
same,Percent Growth,[8]; Log10 Concentration −7.0,101%
same,Percent Growth,[8]; Log10 Concentration −8.0,100%
same,GI50,[8]; NCI five dose,13.2 µM
same,TGI,[8]; NCI five dose,3.02E−5
same,Percent Growth,[9]; Log10 Concentration −4.0,−71%
same,Percent Growth,[9]; Log10 Concentration −5.0,−87%
same,Percent Growth,[9]; Log10 Concentration −6.0,80%
same,Percent Growth,[9]; Log10 Concentration −7.0,96%
same,Percent Growth,[9]; Log10 Concentration −8.0,93%
same,GI50,[9]; NCI five dose,1.5 µM
same,TGI,[9]; NCI five dose,3.00E−6
